Results as given in patent US20090227575A1, “7H-PYRROLO[2,3-H]QUINAZOLINE COMPOUNDS, THEIR USE AS mTOR KINASE AND PI3 KINASE INHIBITORS, AND THEIR [sequence]” (Wyeth, priority 2008, published 2009).

Legend:
Type in all cases: biochemical
[1] = biological target: PI3K-alpha (Homo sapiens, UniProt P42336); assay: PI3K-alpha fluorescence polarization assay; settings: read-out: PI3 Kinase α IC50
Method: (§1) The reaction buffer was 20 mM HEPES, pH 7.5, 2 mM MgCl2, 0.05% CHAPS; and 0.01% βME (added fresh). The Stop/Detection Buffer was 100 mM HEPES, pH 7.5, 4 mM EDTA, 0.05% CHAPS; ATP 20 mM in water; PIP2 (diC8, Echelon, Salt Lake City Utah cat #P-4508) 1 mM in water (MW=856.5). The GST-GRP was 1.75 mg/mL or 1.4 mg/mL in 10% glycerol. The Red detector (TAMRA) was 2.5 μM. Nunc 384-well black polypropylene fluorescent plates were used for PI3K assays.
(§2) The assay is run by placing 5 μL of diluted enzyme per well, then 5 μL of diluted compound (or 9.5 μL enzyme then 0.5 μL compound in DMSO) is added and mixed. Then, 10 μL substrate is added to start the reaction. The samples are incubated 30-60 minutes, then the reaction is stopped by adding 20 μL stop/detector mix. PI3K is diluted with reaction buffer (e.g., 5 μL or 7.5 μL PI3K into 620 μL reaction buffer), and 5 μL of diluted enzyme is used per well. A 5 μL portion of reaction buffer or of drug diluted in buffer (e.g., 4 μL/100 so final DMSO is 1% in reaction) is added to each. Pipetting up and down mixes the samples. Alternatively, the enzyme can be diluted to 1215 μL. In this case 9.8 μL is added per well and 0.2 μL compound is added in DMSO.
(§3) To prepare 1 mL of substrate solution, 955 μL reaction buffer, 40 μL PIP2, and 2.5 μL ATP are mixed. 10 μL of substrate is added to each well to start the reaction. […] The stop/detector mix is prepared by mixing 4 μL Red detector and 1.6 μL or 2.0 μL GST-GRP with 1 mL stop buffer, which results in 10 nM probe and 70 nM GST-GRP. 20 μL of the stop/detector mix is added to each well to stop the reaction. The plates are read after 30-90 minutes keeping the red probe solutions dark. For the zero time point, stop/detector mix is added to the enzyme just before adding substrate. For an extra control, stop/detector mix is added to buffer (no enzyme) and substrate or to just buffer (no substrate). […] The recommended reaction has 0.06 μL per 20 μL (0.015 μg/20 μL) or 0.01125 μg/15 μL or 0.75 μg/mL.
(§4) Plates are read on machines with filters for TAMRA. The units are mP with no enzyme controls reading app 190-220 mP units. Fully active enzyme reduces fluorescence polarization down to 70-100 mP after 30 minutes. An active compound raises the mP values halfway to control or to 120-150 mP units.

[2] = biological target: PI3K-gamma (Homo sapiens, UniProt P48736); assay: PI3K-gamma fluorescence polarization assay; settings: read-out: PI3 Kinase γ IC50
Chain of PI3K-gamma (P48736 whole entry, species assumed): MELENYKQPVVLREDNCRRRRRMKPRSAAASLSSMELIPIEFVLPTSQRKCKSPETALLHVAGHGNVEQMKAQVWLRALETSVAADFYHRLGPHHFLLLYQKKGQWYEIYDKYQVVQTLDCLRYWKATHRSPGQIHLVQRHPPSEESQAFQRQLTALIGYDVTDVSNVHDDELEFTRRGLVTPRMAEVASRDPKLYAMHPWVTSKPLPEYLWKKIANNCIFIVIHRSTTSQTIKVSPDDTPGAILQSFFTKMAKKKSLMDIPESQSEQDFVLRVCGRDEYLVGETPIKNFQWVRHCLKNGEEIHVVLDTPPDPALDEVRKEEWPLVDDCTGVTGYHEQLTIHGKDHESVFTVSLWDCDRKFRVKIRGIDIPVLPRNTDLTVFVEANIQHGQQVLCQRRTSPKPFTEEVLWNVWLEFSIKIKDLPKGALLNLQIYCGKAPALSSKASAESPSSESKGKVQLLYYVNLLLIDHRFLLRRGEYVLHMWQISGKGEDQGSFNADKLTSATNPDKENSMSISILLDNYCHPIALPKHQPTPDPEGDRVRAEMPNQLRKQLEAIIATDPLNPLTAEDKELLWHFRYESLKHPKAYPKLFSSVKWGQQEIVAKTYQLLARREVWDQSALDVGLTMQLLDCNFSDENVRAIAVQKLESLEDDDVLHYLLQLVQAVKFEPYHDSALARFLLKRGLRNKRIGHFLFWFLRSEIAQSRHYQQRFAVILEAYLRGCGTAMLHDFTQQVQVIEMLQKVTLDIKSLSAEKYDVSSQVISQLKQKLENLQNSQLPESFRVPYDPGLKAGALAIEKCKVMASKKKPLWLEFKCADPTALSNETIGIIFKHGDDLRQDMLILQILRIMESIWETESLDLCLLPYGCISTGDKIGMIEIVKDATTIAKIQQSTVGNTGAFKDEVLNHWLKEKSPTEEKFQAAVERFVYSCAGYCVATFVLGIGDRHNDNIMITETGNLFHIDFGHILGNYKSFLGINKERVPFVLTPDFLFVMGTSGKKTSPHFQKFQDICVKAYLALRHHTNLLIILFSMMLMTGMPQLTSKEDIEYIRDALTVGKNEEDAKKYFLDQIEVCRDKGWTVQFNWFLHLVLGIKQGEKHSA
Method: as §1, §2, §3, §4

[3] = biological target: Human mTOR (Homo sapiens, UniProt P42345); assay: mTOR kinase assay (DELFIA format, purified enzyme); parameters: FLAG; settings: read-out: TOR Kinase IC50

Chain of PI3K-alpha (P42336 whole entry, species assumed): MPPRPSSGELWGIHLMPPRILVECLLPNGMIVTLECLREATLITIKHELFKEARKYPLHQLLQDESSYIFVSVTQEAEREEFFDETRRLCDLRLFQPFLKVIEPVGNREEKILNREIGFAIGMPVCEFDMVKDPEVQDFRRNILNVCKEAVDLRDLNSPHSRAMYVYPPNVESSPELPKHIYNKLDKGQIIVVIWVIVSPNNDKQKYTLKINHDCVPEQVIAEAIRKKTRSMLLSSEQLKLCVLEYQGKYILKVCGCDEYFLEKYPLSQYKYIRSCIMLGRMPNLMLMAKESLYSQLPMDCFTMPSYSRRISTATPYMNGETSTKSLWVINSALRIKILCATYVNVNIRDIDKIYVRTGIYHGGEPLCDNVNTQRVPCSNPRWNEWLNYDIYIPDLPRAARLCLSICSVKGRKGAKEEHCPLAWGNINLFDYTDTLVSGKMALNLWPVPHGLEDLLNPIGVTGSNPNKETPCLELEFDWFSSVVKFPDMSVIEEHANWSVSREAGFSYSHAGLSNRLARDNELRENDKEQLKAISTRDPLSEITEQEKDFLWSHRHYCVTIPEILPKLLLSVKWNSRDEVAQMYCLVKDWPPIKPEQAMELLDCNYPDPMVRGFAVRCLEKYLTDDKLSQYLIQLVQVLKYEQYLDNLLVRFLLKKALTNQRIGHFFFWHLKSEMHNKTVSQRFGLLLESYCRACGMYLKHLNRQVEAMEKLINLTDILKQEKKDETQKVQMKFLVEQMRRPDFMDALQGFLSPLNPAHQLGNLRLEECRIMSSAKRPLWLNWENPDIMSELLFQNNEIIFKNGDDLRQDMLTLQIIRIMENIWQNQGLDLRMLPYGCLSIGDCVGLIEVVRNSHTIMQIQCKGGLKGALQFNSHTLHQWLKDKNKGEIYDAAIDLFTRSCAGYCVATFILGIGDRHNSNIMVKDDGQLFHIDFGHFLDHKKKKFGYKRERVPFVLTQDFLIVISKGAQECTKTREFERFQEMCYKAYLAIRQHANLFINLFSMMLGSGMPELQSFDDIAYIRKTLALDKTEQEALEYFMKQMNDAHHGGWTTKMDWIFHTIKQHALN
Chain of PI3K-alpha (P27986 whole entry partner, species assumed): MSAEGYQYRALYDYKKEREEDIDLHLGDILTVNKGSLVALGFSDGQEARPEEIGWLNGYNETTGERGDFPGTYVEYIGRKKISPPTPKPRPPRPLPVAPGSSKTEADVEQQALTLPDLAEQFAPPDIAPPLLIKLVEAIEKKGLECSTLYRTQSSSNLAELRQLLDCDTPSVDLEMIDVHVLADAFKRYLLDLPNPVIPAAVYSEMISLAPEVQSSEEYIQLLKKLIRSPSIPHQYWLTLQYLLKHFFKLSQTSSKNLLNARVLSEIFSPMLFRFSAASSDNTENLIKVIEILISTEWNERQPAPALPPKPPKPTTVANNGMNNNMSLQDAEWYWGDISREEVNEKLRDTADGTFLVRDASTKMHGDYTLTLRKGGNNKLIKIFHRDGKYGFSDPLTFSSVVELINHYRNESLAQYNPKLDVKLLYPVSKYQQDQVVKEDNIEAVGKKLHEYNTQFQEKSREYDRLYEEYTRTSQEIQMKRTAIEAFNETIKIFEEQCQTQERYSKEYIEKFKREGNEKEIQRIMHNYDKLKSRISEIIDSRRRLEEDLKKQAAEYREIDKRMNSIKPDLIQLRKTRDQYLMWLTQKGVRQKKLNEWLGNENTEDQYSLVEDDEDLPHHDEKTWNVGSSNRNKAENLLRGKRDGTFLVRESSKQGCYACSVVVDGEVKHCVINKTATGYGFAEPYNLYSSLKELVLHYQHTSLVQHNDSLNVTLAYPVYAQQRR

Row | Compound | IC50 [1] [nM] | IC50 [2] [nM] | IC50 [3] [nM]
1 | 2-(1H-indol-4-yl)-7-methyl-4-morpholin-5-yl-7H-pyrrolo[2,3-h]quinazoline [Example 49] | 6310 | 4660 | 340
2 | 3-(7-methyl-4-morpholin-4-yl-7H-pyrrolo[2,3-h]quinazolin-2-yl)aniline [Example 41] | > 10000 | > 10000 | 1450
3 | Cn1ccc2c3nc(-c4ccc(N)cc4)nc(N4CCOCC4)c3ccc21 [Example 1, 4-(7-methyl-4-morpholin-4-yl-7H-pyrrolo[2,3-h]quinazolin-2-yl)aniline] | 6480 |  | 805
4 | CNC(=O)Nc1ccc(-c2nc(N3CCOCC3)c3ccc4c(ccn4C)c3n2)cc1 [Example 2, 1-methyl-3-[4-(7-methyl-4-morpholin-4-yl-7H-pyrrolo[2,3h]quinazolin-2-yl)phenyl]urea] | 428 | 5390 | 66
5 | CCNC(=O)Nc1ccc(-c2nc(N3CCOCC3)c3ccc4c(ccn4C)c3n2)cc1 [Example 3, 1-ethyl-3-[4-(7-methyl-4-morpholin-4-yl-7H-pyrrolo[2,3-h]quinazolin-2-yl)phenyl]urea] | 2110 | 4040 | 35
6 | CN(C)CCNC(=O)Nc1ccc(-c2nc(N3CCOCC3)c3ccc4c(ccn4C)c3n2)cc1 [Example 4, 1-[2-(dimethylamino)ethyl]-3-[4-(7-methyl-4-morpholin-4-yl-7H-pyrrolo[2,3-h]quinazolin-2-yl)phenyl]urea] | 728 | 2840 | 2050
7 | CN(C)CCCNC(=O)Nc1ccc(-c2nc(N3CCOCC3)c3ccc4c(ccn4C)c3n2)cc1 [Example 5, 1-[3-(dimethylamino)propyl]-3-[4-(7-methyl-4-morpholin-4-yl-7H-pyrrolo[2,3-h]quinazolin-2-yl)phenyl]urea] | 2700 |  | 2050
8 | CN1CCN(C(=O)Nc2ccc(-c3nc(N4CCOCC4)c4ccc5c(ccn5C)c4n3)cc2)CC1 [Example 6, 4-methyl-N-[4-(7-methyl-4-morpholin-4-yl-7H-pyrrolo[2,3-h]quinazolin-2-yl)phenyl]piperazine-1-carboxamide] | 7630 |  | 2550
9 | Cn1ccc2c3nc(-c4ccc(NC(=O)NCc5ccco5)cc4)nc(N4CCOCC4)c3ccc21 [Example 7, 1-(2-furylmethyl)-3-[4-(7-methyl-4-morpholin-4-yl-7H-pyrrolo[2,3-h]quinazolin-2-yl)phenyl]urea] | 1690 | 3500 | 560
10 | Cn1ccc2c3nc(-c4ccc(NC(=O)NCCCn5ccnc5)cc4)nc(N4CCOCC4)c3ccc21 [Example 8, 1-[3-(1H-imidazol-1-yl)propyl]-3-[4-(7-methyl-4-morpholin-4-yl-7H-pyrrolo[2,3-h]quinazolin-2-yl)phenyl]urea] | 431 | 3040 | 190
11 | Cn1ccc2c3nc(-c4ccc(NC(=O)Nc5ccccn5)cc4)nc(N4CCOCC4)c3ccc21 [Example 9, 1-[4-(7-methyl-4-morpholin-4-yl-7H-pyrrolo[2,3-h]quinazolin-2-yl)phenyl]-3-pyridin-2-ylurea] | 2700 | 5130 | 75
12 | Cn1ccc2c3nc(-c4ccc(NC(=O)Nc5ccccc5)cc4)nc(N4CCOCC4)c3ccc21 [Example 10, 1-[4-(7-methyl-4-morpholin-4-yl-7H-pyrrolo[2,3-h]quinazolin-2-yl)phenyl]-3-phenylurea] | 71 | 247 | 21
13 | Cn1ccc2c3nc(-c4ccc(NC(=O)Nc5ccncc5)cc4)nc(N4CCOCC4)c3ccc21 [Example 11, 1-[4-(7-methyl-4-morpholin-4-yl-7H-pyrrolo[2,3-h]quinazolin-2-yl)phenyl]-3-pyridin-4-ylurea] | 101 | 437 | 3.7
14 | CC(C)c1ccc(NC(=O)Nc2ccc(-c3nc(N4CCOCC4)c4ccc5c(ccn5C)c4n3)cc2)cc1 [Example 12, 1-(4-isopropylphenyl)-3-[4-(7-methyl-4-morpholin-4-yl-7H-pyrrolo[2,3-h]quinazolin-2-yl)phenyl]urea] | 2000 | 1330 | 355
15 | Cn1ccc2c3nc(-c4ccc(NC(=O)Nc5cccc(Cl)c5)cc4)nc(N4CCOCC4)c3ccc21 [Example 13, 1-(3-chlorophenyl)-3-[4-(7-methyl-4-morpholin-4-yl-7H-pyrrolo[2,3-h]quinazolin-2-yl)phenyl]urea] | 62 | 234 | 260
16 | Cn1ccc2c3nc(-c4ccc(NC(=O)Nc5ccc(C(F)(F)F)cc5)cc4)nc(N4CCOCC4)c3ccc21 [Example 14, 1-[4-(7-methyl-4-morpholin-4-yl-7H-pyrrolo[2,3-h]quinazolin-2-yl)phenyl]-3-[4-(trifluoromethyl)phenyl]urea] | 239 | 634 | 125
17 | Cn1ccc2c3nc(-c4ccc(NC(=O)NCc5ccccn5)cc4)nc(N4CCOCC4)c3ccc21 [Example 15, 1-[4-(7-methyl-4-morpholin-4-yl-7H-pyrrolo[2,3-h]quinazolin-2-yl)phenyl]-3-(pyridin-2-ylmethyl)urea] | 2520 | 3310 | 2150
18 | CC(=O)Nc1ccc(-c2nc(N3CCOCC3)c3ccc4c(ccn4C)c3n2)cc1 [Example 16, N-[4-(7-methyl-4-morpholin-4-yl-7H-pyrrolo[2,3-h]quinazolin-2-yl)phenyl]acetamide] | 3080 | > 10000 | 370
19 | Cn1ccc2c3nc(-c4ccc(NC(=O)c5cccnc5)cc4)nc(N4CCOCC4)c3ccc21 [Example 17, N-[4-(7-methyl-4-morpholin-4-yl-7H-pyrrolo[2,3-h]quinazolin-2-yl)phenyl]nicotinamide] | > 10000 | 9850 | 1400
20 | Cn1ccc2c3nc(-c4ccc(NC(=O)c5ccncc5)cc4)nc(N4CCOCC4)c3ccc21 [Example 18, N-[4-(7-methyl-4-morpholin-4-yl-7H-pyrrolo[2,3-h]quinazolin-2-yl)phenyl]isonicotinamide] | 4460 | 5620 | 1450
21 | Cn1ccc2c3nc(-c4ccc(NS(C)(=O)=O)cc4)nc(N4CCOCC4)c3ccc21 [Example 21, N-[4-(7-methyl-4-morpholin-4-yl-7H-pyrrolo[2,3-h]quinazolin-2-yl)phenyl]methanesulfonamide] | 7830 | > 10000 | 
22 | Cn1ccc2c3nc(-c4ccc(C(=O)O)cc4)nc(N4CCOCC4)c3ccc21 [Example 38, 4-(7-methyl-4-morpholin-4-yl-7H-pyrrolo[2,3-h]quinazolin-2-yl)benzoic acid] |  |  | 4000
23 | Cn1ccc2c3nc(-c4cccc(C(N)=O)c4)nc(N4CCOCC4)c3ccc21 [Example 39, 3-(7-methyl-4-morpholin-4-yl-7H-pyrrolo[2,3-h]quinazolin-2-yl)benzamide] |  |  | 1720
24 | Cn1ccc2c3nc(-c4cccc(C#N)c4)nc(N4CCOCC4)c3ccc21 [Example 40, 3-(7-methyl-4-morpholin-4-yl-7H-pyrrolo[2,3-h]quinazolin-2-yl)benzonitrile] |  |  | 2300
25 | Cn1ccc2c3nc(-c4cnc(O)nc4)nc(N4CCOCC4)c3ccc21 [Example 51, 5-(7-methyl-4-morpholin-4-yl-7H-pyrrolo[2,3-h]quinazolin-2-yl)pyrimidin-2-ol] | > 10000 | > 10000 | 
26 | Cn1ccc2c3nc(-c4cccc(F)c4)nc(N4CCOCC4)c3ccc21 [Example 52, 2-(3-fluorophenyl)-7-methyl-4-morpholin-4-yl-7H-pyrrolo[2,3-h]quinazoline] | 8880 | 3660 | 
27 | CCCNC(=O)Nc1ccc(-c2nc(N3CCOCC3)c3ccc4c(ccn4C)c3n2)cc1 [Example 54, 1-[4-(7-methyl-4-morpholin-4-yl-7H-pyrrolo[2,3-h]quinazolin-2-yl)phenyl]-3-propylurea] |  |  | 21
